Consider three molecules from ChEMBL document CHEMBL1150870, “Trichoflectin, a bioactive azaphilone from the ascomycete Trichopezizella nidulus” (1998).

SMILES strings stand for the structures.

Common to all, as to format: functional
Holding throughout (conditions): read-out: IZ

The test system of test [1] is Lachnellula. The test can be described thus: Inhibition of DHN-melanin biosynthesis in Lachnellula sp. A32-89 assessed as pigment inhibition zone at 50 ug/disk by agar diffusion assay.
The subject of test [2] is Rhizomucor miehei. The test can be described thus: Antimicrobial activity against Mucor miehei at 50 ug/disk.
The test system of test [3] is Bacillus subtilis. Kind of test: Antimicrobial activity against Bacillus subtilis at 50 ug/disk.

For `CC1=CC2=C(CO1)C(=O)c1c(O)cc(O)cc1C2=O`, in test [1], the zone of inhibition at 50 µg/disc worked out at 14 mm. For the molecule `COc1cc(O)c2c(c1)C(=O)C1=C(COC(C)=C1)C2=O`, the zone of inhibition at 50 µg/disc in test [1] was 14 mm. On to `C/C=C/C1=CC2=CC(=O)[C@@]3(C)OC(=O)C(C(C)=O)=C3C2=CO1` [TRICHOFLECTIN], for which the values for the zone of inhibition at 50 µg/disc in test [2], in test [1] and in test [3] were 23 mm, 19 mm and 23 mm, respectively.
